Measured values as given in patent publication US9422357.

Settings: disulfide bond; 38-membered ring

S1C(disialo)•N19C(GlcNAc)-SRIF28
ring closure, yield after HPLC: 59%
